Like-named read-outs stand apart in the source and are kept apart here. Non-standard residues stand in square brackets, D forms with d. Residues, ends and D or L forms follow the SMILES beside them. No end group written: not given here. Aib = CC(C)(N)C(=O)O
How the values were obtained:
[1] = test system: BV2 microglia cells; experiment: LPS-induced nitric oxide production in BV2 microglia cells; format: cell-based; details: 50% suppression of nitric oxide release from BV2 cells following LPS stimulation
Description: FIG. 1. COG 112 inhibits LPS-induced production of inflammatory cytokines in BV2 microglia cells. Inhibition curves for COG112 in the production of NO (green squares), TNFα (red diamonds), and IL-6 (blue triangles) by BV2 microglia. Compounds were added to the final concentrations indicated on the graph along with 100 ng/mL of LPS. After 24 hours the media was removed and assayed by two-site ELISA (BioSource) and quantitated relative to a standard curve on the same plate.
FIG. 3. NO Inhibition curve for COG449. BV2 microglia were treated with COG449 at the final concentrations indicated on the graph, along with 100 ng/mL of LPS. After 24 hours the media was removed and assayed by two-site ELISA (BioSource) and quantitated relative to a standard curve on the same plate.
(§1) We also evaluated the various peptides for efficacy in suppressing nitric oxide production induced by LPS stimulation of BV2 microglia cells as a measure of anti-inflammatory activity as well as the maximum dose tolerated in mice (Table I and FIG. 6A). For the LPS assay, EC50 is the concentration of compound that caused a 50% suppression of nitric oxide release from BV2 cells following LPS stimulation. For mouse toxicity, MTD is the maximum dose of the compound that can be given by intravenous injection without causing deaths after 24 hrs. […] Coupling the ApoE domain to a protein transduction domain further enhanced the potency of the dimers.
Low passage BV2 microglial cell cultures are maintained in 10% HI (Heat Inactivated) FBS DMEM media (supplemented with MEM NEAA (Non-Essential Amino Acids), sodium pyruvate and Pen-Strep) and continuously cultured until needed. To determine the IC50 values for NO production, peptides are added to BV2 cultures in 1% HI FBS DMEM media (supplemented with MEM NEAA and sodium pyruvate) at a range of final assay concentrations from 1.0 μM in 2 fold dilutions to 7.8 nM followed immediately by addition of LPS (100 ng/mL final concentration) as previously described (Laskowitz et al. (2001) Exp Neurol, Vol. 167(1): 74-85). After incubating for 18±1 hours, conditioned media is removed for analysis of nitrite (the stable oxidation product of released nitric oxide) by the Griess colorimetric assay (Promega). Remaining cells are assayed for viability in an MTT assay (Promega) and the nitrite assay values are normalized for each concentration using the percent viability of cells in the MTT assay. […] Typically, the absence of LPS exposure to BV2 cells results in levels below the limit of detection in our assays. Similarly, addition of any of the peptides up to 25 μM without LPS results in undetectable NO levels.

[2] = test system: B-CLL cells; experiment: Cytotoxicity on patient-derived B-CLL cells (MTS assay); details: for Fold Change: CLL EC50 relative to COG056 (rev133) = 1.0
Excerpt: FIG. 5A: Dose response curves for COG449 cytotoxicity on CLL cells from 4 leukemia patients. Human CLL cells were isolated from blood samples and assayed for COG449 cytotoxicity. […] FIG. 5B: Dose response curves for COG445 on CLL cells from 7 patients or normal B-cells from 5 patients. Human CLL cells and PBMC were isolated and assayed for cytotoxicity of COG445.
Blood from CLL patients was collected and CD5+/CD19+ CLL cells were isolated using the RosetteSep™ Human B-Cell Enrichment Cocktail, according to the manufacturer's instructions, and treated with COG compounds. Compounds were applied to B-CLL cells (2.5×10^5 cells/well in a 96 well plate), after which the cells were treated for 72 hours.
Normal B-cells from volunteers and B-CLL cells from patients are isolated using the RosetteSep™ Human B Cell Enrichment Cocktail according to the manufacturer's instructions. This method depletes whole blood of T cells, monocytes, and NK cells using a proprietary antibody cocktail that cross-links unwanted cells in human whole blood to multiple red blood cells (RBCs) forming immunorosettes. This increases the density of the unwanted (rosetted) cells, such that they pellet along with the free RBCs when centrifuged over a buoyant density medium such as Ficoll-Paque®. This leaves the highly enriched B-cell or B-CLL cells at the interface between Ficoll and the plasma. The antibodies in the cocktail contain […] and anti-CD16 antibodies to remove T cells, monocytes, and NK cells, respectively. The purity of these B-cell and B-CLL preparations is then determined by flow cytometry.
For cytotoxicity assays, 3×10^6 CLL cells/well are cultured in 24 well tissue culture plates in 1.5 mL of Hybridoma SFM™ (Gibco, Long Island, N.Y.) as described by Levesque et al. (2001, 2003). All cultures are incubated at 37° C., 5% CO2 in air.

[3] = test system: normal B-cells; experiment: Cytotoxicity on normal B-cells from volunteers; format: cell-based, human; details: normal B-cells from volunteers
Description: Normal B-cells from volunteers and B-CLL cells from patients are isolated using the RosetteSep™ Human B Cell Enrichment Cocktail according to the manufacturer's instructions. This method depletes whole blood of T cells, monocytes, and NK cells using a proprietary antibody cocktail that cross-links unwanted cells in human whole blood to multiple red blood cells (RBCs) forming immunorosettes. This increases the density of the unwanted (rosetted) cells, such that they pellet along with the free RBCs when centrifuged over a buoyant density medium such as Ficoll-Paque®. This leaves the highly enriched B-cell or B-CLL cells at the interface between Ficoll and the plasma. The antibodies in the cocktail contain anti-CD14, anti-CD2 and anti-CD16 antibodies to remove T cells, monocytes, and NK cells, respectively. The purity of these B-cell and B-CLL preparations is then determined by flow cytometry. Preparations typically average less than 2% CD3+ T-cells and less than 0.5% CD14+ monocytes. In the case of B-CLL cell isolation, we routinely obtain preparations that contain less than 1.5% normal CD19+/CD5− B-cells using this method.

[4] = Mouse toxicity, maximum tolerated dose by intravenous injection; details: in vivo, maximum dose by intravenous injection without deaths after 24 hrs
Excerpt: as §1

[5] = test system: U87MG glioblastoma cells; format: cell-based; details: MTT
Description: FIG. 14A: Dose response curve of COG445 on proliferation of U87 (open circles) and MDA-MB-231 (filled circles) cells as measured by MTT reduction. FIG. 14B: Dose response curve of COG445 on proliferation of MDA-MB-231 cells as measured by cell count.
To determine whether ApoE peptide dimers were cytotoxic to other types of cancer, we evaluated the effect of three different ApoE BMOE-linked peptide dimers (COG449, COG492, COG493; see Table I) on the growth characteristics of U87MG glioblastoma cells. Various concentrations of COG449, COG492, COG493 or Sorafenib were used to treat U87MG glioblastoma cells and viable cells were quanititated using MTT. Sorafenib, which has previously been reported to be cytotoxic to glioblastoma cells (Yang et al. (2010) Mol Cancer Ther., Vol. 9(4):953-962), was used as a positive control.
Because COG445 inhibited Akt activation and downstream signaling, we examined the effects of COG445 on cellular proliferation. Adherent MB231 and U87 cells were grown for ˜24 hours in the presence of COG445 and cellular proliferation was measured by MTT reduction. […] Furthermore, COG445 inhibited MB231 cellular proliferation as determined by cell count (FIG. 14B). Approximately 6×10^4 cells were plated in growth media (RPMI+10% FBS) for 24-hours with increasing concentrations of COG445. […] However at concentrations ≧1 μM COG445, there appears to be a loss of cells. This is partially explained by decreased proliferation, although it is possible that the rate of cellular degradation was increased in the presence of COG445.

[6] = read-out: CLL EC50, B-CLL cells from patients, 72 hours, MTS assay

In the case of `CC[C@H](C)[C@H](NC(=O)[C@H](CCCCN)NC(=O)[C@@H](NC(=O)[C@H](CCC(N)=O)NC(=O)[C@@H](N)CCCNC(=N)N)[C@@H](C)CC)C(=O)N[C@@H](Cc1c[nH]c2ccccc12)C(=O)N[C@@H](Cc1ccccc1)C(=O)N[C@@H](CCC(N)=O)C(=O)N[C@@H](CC(N)=O)C(=O)N[C@@H](CCCNC(=N)N)C(=O)N[C@@H](CCCNC(=N)N)C(=O)N[C@@H](CCSC)C(=O)N[C@@H](CCCCN)C(=O)N[C@@H](Cc1c[nH]c2ccccc12)C(=O)N[C@@H](CCCCN)C(=O)N[C@@H](CCCCN)C(=O)N[C@@H](CS)C(=O)N[C@@H](C)C(=O)N[C@@H](CO)C(=O)NC(C)(C)C(=O)N[C@@H](CC(C)C)C(=O)N[C@@H](CCCNC(=N)N)C(=O)N[C@@H](CCCCN)C(=O)N[C@@H](CC(C)C)C(=O)NC(C)(C)C(=O)N[C@@H](CCCCN)C(=O)N[C@@H](CCCNC(=N)N)C(=O)N[C@@H](CC(C)C)C(=O)N[C@@H](CC(C)C)C(=O)O` [COG120, RQIKIWFQNRRMKWKK-C-AS(Aib)LRKL(Aib)KRLL (SEQ ID NO: 7)] (H-RQIKIWFQNRRMKWKKCAS[Aib]LRKL[Aib]KRLL-OH; N-terminus and C-terminus assumed), the EC50 [1] is reported as under 1000 nM, the “Fold Change” value [2] is reported as 12.6 and the EC50 [2, 6] is reported as 1000 nM.
In the case of `CC(=O)N[C@@H](CC(C)C)C(=O)N[C@@H](CCCNC(=N)N)C(=O)N[C@H](C(=O)N[C@@H](CCCNC(=N)N)C(=O)N[C@@H](CC(C)C)C(=O)N[C@@H](C)C(=O)N[C@@H](CO)C(=O)N[C@@H](Cc1c[nH]cn1)C(=O)N[C@@H](CC(C)C)C(=O)N[C@@H](CCCNC(=N)N)C(=O)N[C@@H](CCCCN)C(=O)N[C@@H](CC(C)C)C(=O)N[C@@H](CCCNC(=N)N)C(=O)N[C@@H](CCCCN)C(=O)N[C@@H](CCCNC(=N)N)C(=O)N[C@@H](CC(C)C)C(=O)N[C@@H](CC(C)C)C(N)=O)C(C)C` [COG133, LRVRLASHLRKLRKRLL (SEQ ID NO: 3)], the EC50 ([2]; read-out: ED50 cytotoxic potency (text, Table I), CLL cells) is reported as 4400 ± 1500 nM, the EC50 [3] is reported as over 20000 nM and the MTD at 24 h [4] is reported as 16 mg/kg.
In the case of `CC(C)C[C@H](NC(=O)[C@H](CC(C)C)NC(=O)[C@H](CCCNC(=N)N)NC(=O)[C@H](CCCCN)NC(=O)C(C)(C)NC(=O)[C@H](CC(C)C)NC(=O)[C@H](CCCCN)NC(=O)[C@H](CCCNC(=N)N)NC(=O)[C@H](CC(C)C)NC(=O)C(C)(C)NC(=O)[C@H](CO)NC(=O)[C@H](C)NC(=O)[C@H](CS)NC(=O)[C@H](CCCNC(=N)N)NC(=O)[C@H](CCCNC(=N)N)NC(=O)[C@H](CCCNC(=N)N)NC(=O)[C@H](CCC(N)=O)NC(=O)[C@H](CCCNC(=N)N)NC(=O)[C@H](CCCNC(=N)N)NC(=O)[C@H](CCCCN)NC(=O)[C@H](CCCCN)NC(=O)[C@H](CCCNC(=N)N)NC(=O)CNC(=O)[C@@H](N)Cc1ccc(O)cc1)C(=O)O` [COG226, YGRKKRRQRRR-C-AS(Aib)LRKL(Aib)KRLL (SEQ ID NO: 6)] (H-YGRKKRRQRRRCAS[Aib]LRKL[Aib]KRLL-OH), the EC50 [1] is reported as under 1000 nM, the “Fold Change” value [2] is reported as 9.2 and the EC50 [2, 6] is reported as 1400 nM.
With `CC(=O)N[C@@H](CSC1CC(=O)N(CCN2C(=O)CC(SC[C@H](NC(C)=O)C(=O)N[C@@H](CC(C)C)C(=O)N[C@@H](CCCNC(=N)N)C(=O)N[C@H](C(=O)N[C@@H](CCCNC(=N)N)C(=O)N[C@@H](CC(C)C)C(=O)N[C@@H](C)C(=O)N[C@@H](CO)C(=O)N[C@@H](Cc3c[nH]cn3)C(=O)N[C@@H](CC(C)C)C(=O)N[C@@H](CCCNC(=N)N)C(=O)N[C@@H](CCCCN)C(=O)N[C@@H](CC(C)C)C(=O)N[C@@H](CCCNC(=N)N)C(=O)N[C@@H](CCCCN)C(=O)N[C@@H](CCCNC(=N)N)C(=O)N[C@@H](CC(C)C)C(=O)N[C@@H](CC(C)C)C(N)=O)C(C)C)C2=O)C1=O)C(=O)N[C@@H](CC(C)C)C(=O)N[C@@H](CCCNC(=N)N)C(=O)N[C@H](C(=O)N[C@@H](CCCNC(=N)N)C(=O)N[C@@H](CC(C)C)C(=O)N[C@@H](C)C(=O)N[C@@H](CO)C(=O)N[C@@H](Cc1c[nH]cn1)C(=O)N[C@@H](CC(C)C)C(=O)N[C@@H](CCCNC(=N)N)C(=O)N[C@@H](CCCCN)C(=O)N[C@@H](CC(C)C)C(=O)N[C@@H](CCCNC(=N)N)C(=O)N[C@@H](CCCCN)C(=O)N[C@@H](CCCNC(=N)N)C(=O)N[C@@H](CC(C)C)C(=O)N[C@@H](CC(C)C)C(N)=O)C(C)C` (some centres unmarked) [COG492, C-LRVRLASHLRKLRKRLL (SEQ ID NO: 15) <BMOE> C-LRVRLASHLRKLRKRLL (SEQ ID NO: 15)] the MTD at 24 h [4] was 25 mg/kg and the “cytotoxicity to U87MG cells” value [5] was “cytotoxic”.
In the case of “LLRKRLKRLHSALRVRL [COG056, LLRKRLKRLHSALRVRL (SEQ ID NO: 2), reference compound]”, the EC50 [1] is reported as over 20000 nM, the “Fold Change” value [2] is reported as 1.0 and the EC50 [2, 6] is reported as 12900 nM.
